Assay results as given in publication PMC11031313 (Cell chemical biology, 2024).

Legend:
[1] = test system: Nef-mediated MHC-I downregulation; assay: Rescue of cell-surface MHC-I in Dox-induced CEM/Nef-eGFP T cells; assay type: cell-based, human; settings: 3 μM, 24 h
[2] = target: thalidomide-binding domain of CRBN (Homo sapiens, UniProt Q96SW2); assay: SPR binding to CRBN thalidomide-binding domain; settings: 90 s association, 180 s dissociation
[3] = test system: Nef-mediated CD4 downregulation; assay: Rescue of cell-surface CD4 in Dox-induced CEM/Nef-eGFP T cells; assay type: cell-based, human; settings: 3 μM, 24 h
[4] = target: Nef (NL4-3 variant) and CRBN thalidomide-binding domain (UniProt P03406+Q96SW2, A33V/T15A/T51N/V11I); assay: PROTAC-mediated ternary complex formation in vitro; settings: 25 μM of each protein, 5-, 10- or 20-fold molar excess of PROTAC
[5] = target: HIV-1 Nef (NL4-3 variant) (Human immunodeficiency virus type 1, UniProt Q90VU7); assay: SPR binding to HIV-1 Nef; settings: for binding kinetics with Nef (in words): SPR, 90 s association, 180 s dissociation
Nef-eGFP fusion protein = Nef-eGFP fusion protein (UniProt P03406+Q96SW2); assay: Nef-eGFP protein loss in CEM/Nef-eGFP cells by flow cytometry; assay type: cell-based, HIV-1; settings: 3 μM, 24 h
uninfected PBMCs = assay: Viability of uninfected PBMCs; assay type: cell-based, human; settings: 1 μM, 4 days
HIV-1NL4-3 [6] = assay: HIV-1 replication in donor PBMCs; assay type: cell-based; settings: 1 μM, 4 days
HIV-1 Nef (SF2 variant) = HIV-1 Nef (SF2 variant) (Human immunodeficiency virus type 1 group M subtype B, UniProt P03407); assay type: cell-based; settings: 293T cells, PROTAC 10 μM, 24 h
SIV Nef mac239 = SIV Nef mac239 (Simian immunodeficiency virus, UniProt Q5QGG3); assay: SPR binding to SIV Nef mac239
[7] = target: M-group HIV-1 Nef variants; assay: SPR binding to M-group HIV-1 Nef variants; settings: HIV-1 Nef proteins
IKZF1 (Ikaros) = IKZF1 (Ikaros) (Homo sapiens, UniProt Q13422); assay: IKZF1 protein level in CEM/Nef-eGFP T cells; assay type: cell-based; settings: CEM/Nef-eGFP cells after Dox induction
TZM-bl cells = assay: Viability of uninfected TZM-bl cells; assay type: cell-based, human
HIV-1NL4-3 [8] = assay: HIV-1 infectivity assay in TZM-bl reporter cells; assay type: cell-based; settings: Human immunodeficiency virus 1, TZM-bl, 48 h, read-out: IC50, HIV-1 infectivity

Nef (NL4-3 variant) and CRBN thalidomide-binding domain, sequence (Q96SW2 317-425, other chains not shown): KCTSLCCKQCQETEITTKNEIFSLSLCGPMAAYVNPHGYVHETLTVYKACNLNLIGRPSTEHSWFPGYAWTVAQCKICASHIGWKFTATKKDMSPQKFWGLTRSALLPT
Nef-eGFP fusion protein, sequence (Q16531 whole entry, other chains not shown, the tested form may be a part): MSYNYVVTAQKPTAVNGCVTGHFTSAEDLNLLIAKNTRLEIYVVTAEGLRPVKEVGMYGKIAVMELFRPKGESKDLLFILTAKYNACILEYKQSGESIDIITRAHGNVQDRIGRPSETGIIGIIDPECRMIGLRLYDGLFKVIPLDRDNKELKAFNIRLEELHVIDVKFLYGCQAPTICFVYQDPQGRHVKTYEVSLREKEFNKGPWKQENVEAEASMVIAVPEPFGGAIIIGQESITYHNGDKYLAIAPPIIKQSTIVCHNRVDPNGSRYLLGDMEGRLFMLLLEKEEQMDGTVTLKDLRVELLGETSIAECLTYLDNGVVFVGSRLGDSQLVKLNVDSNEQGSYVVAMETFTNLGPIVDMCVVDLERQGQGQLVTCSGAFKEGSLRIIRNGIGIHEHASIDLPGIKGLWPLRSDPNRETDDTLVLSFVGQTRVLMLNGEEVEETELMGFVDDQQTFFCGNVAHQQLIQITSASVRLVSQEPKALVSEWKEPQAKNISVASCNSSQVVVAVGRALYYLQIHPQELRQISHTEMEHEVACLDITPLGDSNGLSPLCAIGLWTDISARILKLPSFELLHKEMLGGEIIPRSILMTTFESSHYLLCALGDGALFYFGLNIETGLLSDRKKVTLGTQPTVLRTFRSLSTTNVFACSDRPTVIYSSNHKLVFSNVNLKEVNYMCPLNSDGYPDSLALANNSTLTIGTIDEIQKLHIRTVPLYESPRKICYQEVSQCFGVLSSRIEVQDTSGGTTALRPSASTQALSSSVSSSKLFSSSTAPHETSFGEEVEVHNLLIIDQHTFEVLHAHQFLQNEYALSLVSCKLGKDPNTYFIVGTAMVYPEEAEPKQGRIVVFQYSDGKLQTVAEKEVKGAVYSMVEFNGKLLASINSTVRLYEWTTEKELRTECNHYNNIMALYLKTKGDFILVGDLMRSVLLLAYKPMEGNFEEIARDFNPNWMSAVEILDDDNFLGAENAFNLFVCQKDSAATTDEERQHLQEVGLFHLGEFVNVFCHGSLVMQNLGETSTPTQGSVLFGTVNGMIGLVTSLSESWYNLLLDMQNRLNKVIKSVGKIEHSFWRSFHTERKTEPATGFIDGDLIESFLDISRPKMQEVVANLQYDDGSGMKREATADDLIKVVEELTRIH
Nef-eGFP fusion protein, sequence (Q96SW2 whole entry, other chains not shown, the tested form may be a part): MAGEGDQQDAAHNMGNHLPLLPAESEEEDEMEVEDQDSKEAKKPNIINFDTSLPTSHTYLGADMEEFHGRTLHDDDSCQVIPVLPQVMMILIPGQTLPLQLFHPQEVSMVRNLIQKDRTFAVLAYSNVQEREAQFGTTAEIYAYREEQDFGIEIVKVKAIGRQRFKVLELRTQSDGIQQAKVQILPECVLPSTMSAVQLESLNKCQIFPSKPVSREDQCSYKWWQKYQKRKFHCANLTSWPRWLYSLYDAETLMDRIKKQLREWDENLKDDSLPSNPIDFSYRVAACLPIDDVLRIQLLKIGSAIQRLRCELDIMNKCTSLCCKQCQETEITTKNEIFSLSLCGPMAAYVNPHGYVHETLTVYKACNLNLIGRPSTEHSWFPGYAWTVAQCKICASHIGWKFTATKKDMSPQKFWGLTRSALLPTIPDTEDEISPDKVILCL
IKZF1 (Ikaros), sequence (Q13422 whole entry): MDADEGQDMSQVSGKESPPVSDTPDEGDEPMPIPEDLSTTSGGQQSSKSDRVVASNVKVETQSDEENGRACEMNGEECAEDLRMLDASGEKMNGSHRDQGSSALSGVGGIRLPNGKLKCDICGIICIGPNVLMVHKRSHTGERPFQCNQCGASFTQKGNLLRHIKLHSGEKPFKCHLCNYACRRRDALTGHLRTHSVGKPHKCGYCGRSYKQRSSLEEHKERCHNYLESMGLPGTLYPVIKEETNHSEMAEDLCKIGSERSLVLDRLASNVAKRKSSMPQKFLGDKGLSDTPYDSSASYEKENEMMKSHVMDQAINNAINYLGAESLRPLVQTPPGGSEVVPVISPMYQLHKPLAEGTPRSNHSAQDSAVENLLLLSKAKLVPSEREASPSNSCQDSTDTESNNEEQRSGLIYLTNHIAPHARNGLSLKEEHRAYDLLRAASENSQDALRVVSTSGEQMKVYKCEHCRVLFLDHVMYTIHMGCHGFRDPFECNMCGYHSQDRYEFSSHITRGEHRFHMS
thalidomide-binding domain of CRBN, sequence (Q96SW2 317-425): as the sequence (Q96SW2 317-425, other chains not shown) above

Row | SMILES | cell-surface MHC-I rescue (in words) [1] | cell-surface CD4 rescue (in words) [3] | ternary complex formation (in words) [4] | binding kinetics with Nef (in words) [5] | Nef-eGFP protein loss / Nef degradation (in words) (Nef-eGFP fusion protein) | induction of Nef ubiquitylation (in words) (HIV-1 Nef (SF2 variant)) | Kd (SIV Nef mac239) | Kd [7] | also measured
1 | O=C(COc1cccc2c1CN(C1CCC(=O)NC1=O)C2=O)NCCOCCOCCOCc1ccc(-c2nn(-c3nc4cc(Cl)ccc4[nH]3)c(O)c2CCc2ccc(F)cc2)cc1 (centres unmarked) [FC-12988, N-(2-{2-[2-({4-[1-(5-chloro-1H-1,3-benzodiazol-2-yl)-4-[2-(4-fluorophenyl)ethyl]-5-hydroxy-1H-pyrazol-3-yl]phenyl}methoxy)ethoxy]ethoxy}ethyl)-2-{[2-(2,6-dioxopiperidin-3-yl)-1-oxo-2,3-dihydro-1H-isoindol-4-yl]oxy}acetamide] | restored CD4 and MHC-I expression | restored CD4 and MHC-I expression | induce ternary complexes of Nef with CRBN | more rapid association and release compared to FC-13182 | effectively induced Nef degradation | – | – | – | binding kinetics with CRBN thalidomide-binding domain (in words) [2]: associated more slowly than FC-13182 and showed a comparatively slow dissociation phase
2 | O=C(COCCOc1ccc(CCc2c(-c3ccc(C(F)(F)F)cc3)nn(-c3nc4cc(Cl)ccc4[nH]3)c2O)cc1)NCCNc1cccc2c1C(=O)N(C1CCC(=O)NC1=O)C2=O (centres unmarked) [FC-13182, 2-[2-(4-{2-[1-(5-chloro-1H-1,3-benzodiazol-2-yl)-5-hydroxy-3-[4-(trifluoromethyl)phenyl]-1H-pyrazol-4-yl]ethyl}phenoxy)ethoxy]-N-(2-{[2-(2,6-dioxopiperidin-3-yl)-1,3-dioxo-2,3-dihydro-1H-isoindol-4-yl]amino}ethyl)acetamide] | restored CD4 and MHC-I expression | restored CD4 and MHC-I expression | – | – | effectively induced Nef degradation | – | – | – | –
3 | O=C(COCCOCCOCCCc1ccc(-c2nn(-c3nc4cc(Cl)ccc4[nH]3)c(O)c2CCc2ccc(F)cc2)cc1)NCCNc1cccc2c1C(=O)N(C1CCC(=O)NC1=O)C2=O (centres unmarked) [FC-13818, 2-{2-[2-(3-{4-[1-(5-chloro-1H-1,3-benzodiazol-2-yl)-4-[2-(4-fluorophenyl)ethyl]-5-hydroxy-1H-pyrazol-3-yl]phenyl}propoxy)ethoxy]ethoxy}-N-(2-{[2-(2,6-dioxopiperidin-3-yl)-1,3-dioxo-2,3-dihydro-1H-isoindol-4-yl]amino}ethyl)acetamide] | – | – | induce ternary complexes of Nef with CRBN | – | – | – | – | – | reduction of viability (uninfected PBMCs): 20%; HIV-1 replication (in words) (HIV-1NL4-3 [6]): reduced HIV-1 replication below the level of the ΔNef mutant
4 | CN(CCNC(=O)COCCOc1ccc(CCc2c(-c3ccc(C(F)(F)F)cc3)nn(-c3nc4cc(Cl)ccc4[nH]3)c2O)cc1)c1cccc2c1C(=O)N(C1CCC(=O)NC1=O)C2=O (centres unmarked) [FC-13887, 2-[2-(4-{2-[1-(5-chloro-1H-1,3-benzodiazol-2-yl)-5-hydroxy-3-[4-(trifluoromethyl)phenyl]-1H-pyrazol-4-yl]ethyl}phenoxy)ethoxy]-N-(2-{[2-(2,6-dioxopiperidin-3-yl)-1,3-dioxo-2,3-dihydro-1H-isoindol-4-yl](methyl)amino}ethyl)acetamide] | – | – | induce ternary complexes of Nef with CRBN | – | – | active | – | – | z-score of normalized BRET ratio (Nef ubiquitylation) (HIV-1 Nef (SF2 variant)): 1.3
5 | O=C1CCC(N2Cc3c(OCC(=O)N4CCC(c5nn(-c6nc7cc(Cl)ccc7[nH]6)c(O)c5CCc5ccc(F)cc5)CC4)cccc3C2=O)C(=O)N1 (centres unmarked) [FC-14367, 3-[4-(2-{4-[1-(5-chloro-1H-1,3-benzodiazol-2-yl)-4-[2-(4-fluorophenyl)ethyl]-5-hydroxy-1H-pyrazol-3-yl]piperidin-1-yl}-2-oxoethoxy)-1-oxo-2,3-dihydro-1H-isoindol-2-yl]piperidine-2,6-dione] | – | – | – | – | – | – | < 1000 nM | < 1000 nM | –
6 | O=C(COc1ccc(CCc2c(-c3ccc(C(F)(F)F)cc3)nn(-c3nc4cc(Cl)ccc4[nH]3)c2O)cc1)NCCNc1cccc2c1C(=O)N(C1CCC(=O)NC1=O)C2=O (centres unmarked) [FC-14369, 2-(4-{2-[1-(5-chloro-1H-1,3-benzodiazol-2-yl)-5-hydroxy-3-[4-(trifluoromethyl)phenyl]-1H-pyrazol-4-yl]ethyl}phenoxy)-N-(2-{[2-(2,6-dioxopiperidin-3-yl)-1,3-dioxo-2,3-dihydro-1H-isoindol-4-yl]amino}ethyl)acetamide] | – | – | – | delayed dissociation | parallel loss in Nef expression | active | < 1000 nM | < 1000 nM | effect on the protein level of IKZF1 (IKZF1 (Ikaros)): reduced the expression of IKZF1; cytotoxicity (in words) (TZM-bl cells): without cytotoxicity; IC50 (HIV-1NL4-3 [8]): ~250 nM; Kd [5]: 6.5 nM
